Assay results: patent publication US10030020B2, “Spirocycle compounds and methods of making and using same” (Abide Therapeutics, Inc., priority 2016, dated 2018)

Legend:
MAGL [1] = molecular target: T1, MAGL (Mus musculus (Mouse), UniProt O35678); experiment: Mouse brain proteomes from inhibitor treated mice (oral gavage, sacrificed 4 h after administration, ABPP analysis); format: in vivo, mouse (C57Bl/6J); details: 5 mg/kg oral gavage
Method: (§1) Preparation of Mouse Brain Proteomes from Inhibitor Treated Mice.
(§2) Inhibitors were administered to wild-type C57Bl/6J by oral gavage in a vehicle, e.g. PEG400/Ethanol/PBS (7/2/1). Each animal was sacrificed 4 h following administration and brain proteomes were prepared and analyzed according to previously established methods (See Niphakis, M. J., et al. (2011) ACS Chem. Neurosci. and Long, J. Z., et al. Nat. Chem. Biol. 5:37-44). Data from this assay is shown in Table 2 (% inhibition at 5 mg/kg).

ABHD6 [2] = molecular target: T2, ABHD6 (Mus musculus (Mouse), UniProt Q8R2Y0); experiment: Mouse brain proteomes from inhibitor treated mice (oral gavage, sacrificed 4 h after administration, ABPP analysis), ABHD6; format: in vivo, mouse (C57Bl/6J); details: 5 mg/kg oral gavage
T2 sequence (Q8R2Y0 whole entry): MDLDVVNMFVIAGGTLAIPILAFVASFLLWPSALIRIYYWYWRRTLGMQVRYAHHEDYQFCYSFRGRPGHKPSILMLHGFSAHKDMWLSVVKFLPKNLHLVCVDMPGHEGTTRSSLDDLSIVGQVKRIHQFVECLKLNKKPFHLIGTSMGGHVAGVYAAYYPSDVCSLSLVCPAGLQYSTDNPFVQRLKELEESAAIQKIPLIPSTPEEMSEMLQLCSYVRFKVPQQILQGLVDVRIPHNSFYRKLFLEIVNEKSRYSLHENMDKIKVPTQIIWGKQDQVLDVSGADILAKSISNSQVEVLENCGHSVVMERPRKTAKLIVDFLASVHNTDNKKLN
Method: as §1, §2

MAGL [3] = molecular target: T1, MAGL; experiment: In vitro competitive activity-based protein profiling (mouse brain membrane fraction or cell lysates), MAGL band; format: biochemical; details: mouse proteome; for IC50: competitive ABPP; for inhibition at 1 µM: read-out: MAGL % Inh 1 μM (mouse)
Method: In Vitro Competitive Activity-Based Protein Profiling.
Proteomes (mouse brain membrane fraction or cell lysates) (50 μL, 1.0 mg/mL total protein concentration) were preincubated with varying concentrations of inhibitors at 37° C. After 30 min, FP—Rh (1.0 μL, 50 μM in DMSO) was added and the mixture was incubated for another 30 min at 37° C. Reactions were quenched with SDS loading buffer (50 μL-4×) and run on SDS-PAGE.

FAAH [4] = molecular target: T3, FAAH (Mus musculus (Mouse), UniProt O08914); experiment: In vitro competitive activity-based protein profiling (mouse brain membrane fraction or cell lysates), FAAH band; format: biochemical; details: mouse proteome; for IC50: competitive ABPP; for inhibition at 1 µM: read-out: FAAH % Inh 1 μM (mouse)
T3 sequence (O08914 whole entry): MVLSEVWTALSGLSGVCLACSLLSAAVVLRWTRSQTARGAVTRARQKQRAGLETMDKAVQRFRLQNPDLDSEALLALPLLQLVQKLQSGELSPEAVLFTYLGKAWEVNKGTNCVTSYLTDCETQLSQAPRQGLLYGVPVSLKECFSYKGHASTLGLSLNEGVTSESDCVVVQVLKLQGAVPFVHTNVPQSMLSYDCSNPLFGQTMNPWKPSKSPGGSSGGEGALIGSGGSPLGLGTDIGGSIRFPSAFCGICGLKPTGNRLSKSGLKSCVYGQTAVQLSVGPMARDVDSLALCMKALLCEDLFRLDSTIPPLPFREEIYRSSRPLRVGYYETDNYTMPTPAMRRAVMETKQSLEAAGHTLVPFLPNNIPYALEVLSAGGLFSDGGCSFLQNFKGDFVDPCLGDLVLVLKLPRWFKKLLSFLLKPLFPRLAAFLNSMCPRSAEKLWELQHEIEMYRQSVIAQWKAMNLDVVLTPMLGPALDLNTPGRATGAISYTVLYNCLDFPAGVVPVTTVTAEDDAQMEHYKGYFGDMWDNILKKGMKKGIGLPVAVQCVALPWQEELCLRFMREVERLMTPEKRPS
Outline: (§3)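 Competitive ABPP: proteome 1.0 mg/mL protein + inhibitor, 30 min, 37° C; FP-Rh probe (stock 50 μM in DMSO) added, 30 min, 37° C; SDS quench, SDS-PAGE, fluorescent band intensity read.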

FAAH [5] = molecular target: T3, FAAH; experiment: Mouse brain proteomes from inhibitor treated mice (oral gavage, sacrificed 4 h after administration, ABPP analysis), FAAH; format: in vivo, mouse (C57Bl/6J); details: 5 mg/kg oral gavage
Method: as §1, §2

ABHD6 [6] = molecular target: T2, ABHD6; experiment: In vitro competitive activity-based protein profiling (mouse brain membrane fraction or cell lysates), ABHD6 band; format: biochemical; details: mouse proteome; for IC50: competitive ABPP; for inhibition at 1 µM: read-out: ABHD6 % Inh 1 μM (mouse)
Outline: as §3

T1 sequence (O35678 whole entry): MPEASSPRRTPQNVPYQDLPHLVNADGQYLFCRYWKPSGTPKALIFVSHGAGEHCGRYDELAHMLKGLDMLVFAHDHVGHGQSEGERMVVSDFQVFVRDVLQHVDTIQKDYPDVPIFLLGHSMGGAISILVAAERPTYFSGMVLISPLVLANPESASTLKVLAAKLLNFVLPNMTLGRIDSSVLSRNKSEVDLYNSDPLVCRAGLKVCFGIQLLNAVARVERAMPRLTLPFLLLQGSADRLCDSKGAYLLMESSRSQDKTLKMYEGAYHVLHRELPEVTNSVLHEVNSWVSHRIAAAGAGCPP

| SMILES | MAGL % Inh 5 mg/kg (mouse) (MAGL [1]) | ABHD6 % Inh 5 mg/kg (mouse) (ABHD6 [2]) | IC50 (MAGL [3]) | IC50 (FAAH [4]) | FAAH % Inh 5 mg/kg (mouse) (FAAH [5]) | IC50 (ABHD6 [6]) | inhibition at 1 µM (MAGL [3]) | inhibition at 1 µM (FAAH [4]) | inhibition at 1 µM (ABHD6 [6]) |
| --- | --- | --- | --- | --- | --- | --- | --- | --- | --- |
| O=C(OC(C(F)(F)F)C(F)(F)F)N1CCC2(CCCN2Cc2ccc(Cl)c(OCCF)c2)CC1 [Example 28, 1,1,1,3,3,3-Hexafluoropropan-2-yl 1-(4-chloro-3-(2-fluoroethoxy)benzyl)-1,8-diazaspiro[4.5]decane-8-carboxylate] | ### (### is ≥75%) | # (# is <25%) | < 100 nM | > 1000 nM | # (# is <25%) | > 1000 nM |  |  |  |
| O=C(OC(C(F)(F)F)C(F)(F)F)N1CCC2(CCCN2Cc2ccc(F)c(OCCF)c2)CC1 [Example 29, 1,1,1,3,3,3-Hexafluoropropan-2-yl 1-(4-fluoro-3-(2-fluoroethoxy)benzyl)-1,8-diazaspiro[4.5]decane-8-carboxylate] | ### (### is ≥75%) | ### (### is ≥75%) | < 100 nM | > 1000 nM | ## (## is equal to or greater than 25% but less than 75%) | > 1000 nM | > 75% | < 25% | ≥ 75% |
| O=C(OC(C(F)(F)F)C(F)(F)F)N1CCC2(CCCN2Cc2ccc(Cl)cc2OCCF)CC1 [Example 30, 1,1,1,3,3,3-Hexafluoropropan-2-yl 1-(4-chloro-2-(2-fluoroethoxy)benzyl)-1,8-diazaspiro[4.5]decane-8-carboxylate] | ### (### is ≥75%) | # (# is <25%) | < 100 nM | > 1000 nM | # (# is <25%) | > 1000 nM | > 75% | < 25% | < 25% |
| O=C(OC(C(F)(F)F)C(F)(F)F)N1CCC2(CCCN2Cc2ccc(OCCF)cc2)CC1 [Example 31, 1,1,1,3,3,3-Hexafluoropropan-2-yl 1-(4-(2-fluoroethoxy)benzyl)-1,8-diazaspiro[4.5]decane-8-carboxylate] | ### (### is ≥75%) | ## (## is equal to or greater than 25% but less than 75%) | < 100 nM | > 1000 nM | # (# is <25%) | > 1000 nM | > 75% | < 25% | < 25% |
| CCOc1cc(CN2CCCC23CCN(C(=O)OC(C(F)(F)F)C(F)(F)F)CC3)ccc1Cl [Example 32, 1,1,1,3,3,3-Hexafluoropropan-2-yl 1-(4-chloro-3-ethoxybenzyl)-1,8-diazaspiro[4.5]decane-8-carboxylate] | ### (### is ≥75%) | # (# is <25%) | < 100 nM | > 1000 nM | # (# is <25%) | > 1000 nM | > 75% | < 25% | < 25% |
| O=C(OC(C(F)(F)F)C(F)(F)F)N1CCC2(CCCN2Cc2cc(Cl)cc(N3CCOCC3)c2)CC1 [Example 33, 1,1,1,3,3,3-Hexafluoropropan-2-yl 1-(3-chloro-5-morpholinobenzyl)-1,8-diazaspiro[4.5]decane-8-carboxylate] | ### (### is ≥75%) | # (# is <25%) | < 100 nM | > 1000 nM | ## (## is equal to or greater than 25% but less than 75%) | > 1000 nM | > 75% | < 25% | < 25% |
| O=C(OC(C(F)(F)F)C(F)(F)F)N1CCC2(CCCN2Cc2cc(Cl)cc(N3CCCC3)c2)CC1 [Example 34, 1,1,1,3,3,3-Hexafluoropropan-2-yl 1-(3-chloro-5-(pyrrolidin-1-yl)benzyl)-1,8-diazaspiro[4.5]decane-8-carboxylate] | ### (### is ≥75%) | # (# is <25%) | < 100 nM | > 1000 nM | # (# is <25%) | > 1000 nM | > 75% | < 25% | < 25% |
| CS(=O)(=O)N1CCN(c2cc(CN3CCCC34CCN(C(=O)OC(C(F)(F)F)C(F)(F)F)CC4)cc(C(F)(F)F)c2)CC1 [Example 43, 1,1,1,3,3,3-Hexafluoropropan-2-yl 1-(3-(4-(methylsulfonyl)piperazin-1-yl)-5-(trifluoromethyl)benzyl)-1,8-diazaspiro[4.5]decane-8-carboxylate] | ## (## is equal to or greater than 25% but less than 75%) | # (# is <25%) | < 100 nM | > 1000 nM | # (# is <25%) | > 1000 nM | > 75% | < 25% | < 25% |

The remaining lines, values ahead:

| MAGL % Inh 5 mg/kg (mouse) (MAGL [1]) | ABHD6 % Inh 5 mg/kg (mouse) (ABHD6 [2]) | IC50 (MAGL [3]) | IC50 (FAAH [4]) | FAAH % Inh 5 mg/kg (mouse) (FAAH [5]) | IC50 (ABHD6 [6]) | inhibition at 1 µM (MAGL [3]) | inhibition at 1 µM (FAAH [4]) | inhibition at 1 µM (ABHD6 [6]) | SMILES |
| --- | --- | --- | --- | --- | --- | --- | --- | --- | --- |
| ### (### is ≥75%) | # (# is <25%) | < 100 nM | > 1000 nM | # (# is <25%) | > 1000 nM | > 75% | < 25% | < 25% | O=C(OC(C(F)(F)F)C(F)(F)F)N1CCC2(CCCN2Cc2cc(N3CCOCC3)cc(C(F)(F)F)c2)CC1 [Example 35, 1,1,1,3,3,3-Hexafluoropropan-2-yl 1-(3-morpholino-5-(trifluoromethyl)benzyl)-1,8-diazaspiro[4.5]decane-8-carboxylate] |
| ### (### is ≥75%) | # (# is <25%) | < 100 nM | > 1000 nM | # (# is <25%) | > 1000 nM | > 75% | < 25% | < 25% | O=C(OC(C(F)(F)F)C(F)(F)F)N1CCC2(CCCN2Cc2cc(N3CCCC3)cc(C(F)(F)F)c2)CC1 [Example 36, 1,1,1,3,3,3-Hexafluoropropan-2-yl 1-(3-(pyrrolidin-1-yl)-5-(trifluoromethyl)benzyl)-1,8-diazaspiro[4.5]decane-8-carboxylate] |
| ### (### is ≥75%) | # (# is <25%) | < 100 nM | > 1000 nM | # (# is <25%) | > 1000 nM | > 75% | < 25% | < 25% | O=C(OC(C(F)(F)F)C(F)(F)F)N1CCC2(CCCN2Cc2cc(OC(F)(F)F)cc(N3CCOCC3)c2)CC1 [Example 37, 1,1,1,3,3,3-Hexafluoropropan-2-yl 1-(3-morpholino-5-(trifluoromethoxy)benzyl)-1,8-diazaspiro[4.5]decane-8-carboxylate] |
| ### (### is ≥75%) | # (# is <25%) | < 100 nM | > 1000 nM | # (# is <25%) | > 1000 nM | > 75% | < 25% | < 25% | O=C(OC(C(F)(F)F)C(F)(F)F)N1CCC2(CCCN2Cc2cc(N3CCS(=O)(=O)CC3)cc(C(F)(F)F)c2)CC1 [Example 42, 1,1,1,3,3,3-Hexafluoropropan-2-yl 1-(3-(1,1-dioxidothiomorpholino)-5-(trifluoromethyl)benzyl)-1,8-diazaspiro[4.5]decane-8-carboxylate] |
